Data: patent publication US20080261994A1, “CYCLOPROPANE COMPOUNDS AND PHARMACEUTICAL USE THEREOF” (Japan Tobacco Inc., priority 2003, published 2008)
Read-outs that look alike come from different tables or passages of the source.

What was measured:
Type in all cases: biochemical
[1] = molecular target: T1, aggrecanase-1 (Homo sapiens, UniProt O75173); assay: Aggrecanase-1 inhibitory action (Particle Assay, GAG release from aggrecan-containing polyacrylamide particles)
T1 sequence (O75173 213-837): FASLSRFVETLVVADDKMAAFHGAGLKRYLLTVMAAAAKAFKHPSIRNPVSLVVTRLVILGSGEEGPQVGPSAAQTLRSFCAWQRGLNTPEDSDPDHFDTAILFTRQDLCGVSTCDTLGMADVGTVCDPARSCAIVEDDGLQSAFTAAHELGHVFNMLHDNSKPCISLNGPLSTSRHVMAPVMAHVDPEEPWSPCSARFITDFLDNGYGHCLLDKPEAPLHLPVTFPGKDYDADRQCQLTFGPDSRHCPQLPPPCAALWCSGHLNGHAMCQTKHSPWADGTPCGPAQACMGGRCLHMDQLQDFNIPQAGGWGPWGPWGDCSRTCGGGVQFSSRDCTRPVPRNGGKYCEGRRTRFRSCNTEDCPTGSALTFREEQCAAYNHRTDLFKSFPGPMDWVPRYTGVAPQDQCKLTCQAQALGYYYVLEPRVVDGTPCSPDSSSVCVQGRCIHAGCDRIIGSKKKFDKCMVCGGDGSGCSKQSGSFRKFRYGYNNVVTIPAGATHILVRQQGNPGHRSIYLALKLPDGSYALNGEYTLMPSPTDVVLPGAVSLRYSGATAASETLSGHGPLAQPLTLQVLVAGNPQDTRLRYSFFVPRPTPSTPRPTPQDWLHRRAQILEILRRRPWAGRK
Experimental: Particle Assay was used for determination of aggrecanase activity.
(§1) The enzyme and substrate were diluted with Tris-HCl buffer, and test compounds were diluted with dimethyl sulfoxide (DMSO).
Test compounds and the enzyme were added into 96-well plate, and polyacrylamide particles containing aggrecan were added as a substrate and the mixture was incubated at 37° C. for 15 hr.
After incubation, the supernatant was transferred to another plate, and mixed with 1,9-dimethylmethylene blue. The absorbence at 595 nm was measured to quantify the amount of glycosaminoglycan (GAG) released in the reaction supernatant. Whale chondroitin sulfate was used as the standard of GAG. The inhibitory activity of the compound in each well (%) was calculated based on the values of enzyme-free well and inhibitor-free well. The inhibitory activity of the compound was represented as […] (μM).

[2] = molecular target: T2, MMP-1 (Homo sapiens, UniProt P03956); assay: MMP-1 inhibitory action (Type I collagen Activity Measurement kit, FITC-labeled collagen type I)
T2 sequence (P03956 100-469): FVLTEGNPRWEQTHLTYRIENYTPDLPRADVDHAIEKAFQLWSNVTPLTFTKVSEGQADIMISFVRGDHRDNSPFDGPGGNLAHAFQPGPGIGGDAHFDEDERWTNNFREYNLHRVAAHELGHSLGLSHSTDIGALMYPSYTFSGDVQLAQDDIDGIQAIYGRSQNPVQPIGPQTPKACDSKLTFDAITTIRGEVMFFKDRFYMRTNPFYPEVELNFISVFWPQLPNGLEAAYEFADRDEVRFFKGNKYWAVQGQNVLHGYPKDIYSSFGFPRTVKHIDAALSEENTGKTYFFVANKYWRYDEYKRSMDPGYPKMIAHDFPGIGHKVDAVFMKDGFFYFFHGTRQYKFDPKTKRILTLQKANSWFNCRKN
Experimental: For MMP-1 Assay, Type I collagen Activity Measurement kit (YAGAI YU-72013) modified to a 96-well plate format was used.
The principle of the kit is based on the property of collagen that becomes soluble in ethanol after being cleaved by MMP-1.
as §1
The enzyme and test compounds were added into 96-well plate, and fluorescein isothiocianate (FITC)-labeled collagen type I was added as a substrate and the mixture was incubated at 37° C. for 3 hr.
The reaction was terminated by addition of Tris-HCl buffer containing ethanol. After centrifugation, the supernatant containing denatured substrate was transferred to another 96-well plate. The collagenase activity of MMP-1 was determined by measuring FITC fluorescence intensity (excitation wavelength 485 nm, emission wavelength 530 nm) of each well. The inhibitory activity of the compound in each well (%) was calculated based on the values of enzyme-free well and inhibitor-free well. The inhibitory activity of the compound was represented as IC50 (μM).

[3] = molecular target: T3, Recombinant Human MMP-13 (Homo sapiens, UniProt P45452); assay: MMP-13 inhibitory activity (MMP-13 specific fluorescent substrate with quencher)
T3 construct: purchased R&D systems 511-MM
Experimental: Inhibitory activity of tested compounds on MMP-13 was measured using MMP-13 specific fluorescent substrate with quencher.
as §1
Test compounds and the enzyme (Recombinant Human MMP-13: R&D systems, 511-MM) were added into 96-well plate. The reaction was initiated by adding synthetic substrate (7-MCA-Pro-CHA-Gly-NVal-His-Ala-DPA: enzyme systems products, Met-06) into the plate. After incubation at 25° C. for 1 h, the reaction was terminated by addition of reaction terminating solution containing acetic acid. Fluorescence intensity of each well was measured (Ex: 325 nm, […] 405 nm) and the MMP-13 inhibitory activity of the compound in each well (%) was calculated based on the values of enzyme-free well and inhibitor-free well. The inhibitory activity of the compound was represented as IC50 (μM).

[4] = aggrecanase-1 inhibitory action, read-out: IC50 AG1 (Experimental Example 1)
[5] = MMP-1 inhibitory action, FITC-labeled collagen type I, 37° C. for 3 hr, read-out: IC50 MMP1 (Experimental Example 2)
[6] = Recombinant Human MMP-13, fluorescent substrate, 25° C. for 1 h, read-out: IC50 MMP13 (Experimental Example 3)
[7] = Experimental Example 1, read-out: IC50 AG1
[8] = Experimental Example 2, read-out: IC50 MMP1
[9] = Experimental Example 3, read-out: IC50 MMP13

SMILES | IC50 [1, 4] [µM] | IC50 [2, 5] [µM] | IC50 [3, 6] [µM] | IC50 [1, 7] [µM] | IC50 [2, 8] [µM] | IC50 [3, 9] [µM]
CC(C)(C)C1CC1(NS(=O)(=O)c1ccc(-c2ccc(Cl)cc2)s1)C(=O)O (stereo not shown) [Example 2-62] | < 1 | ≥ 10 | < 1 | – | – | –
O=C(O)C1(NS(=O)(=O)c2ccc(OCc3ccc(Cl)cc3Cl)cc2)C2CCc3ccccc3C21 (stereo not shown) [Example 2-355] | – | – | – | ≥ 1 | ≥ 1 | < 1
CC1[C@H](c2ccccc2)[C@]1(NS(=O)(=O)c1ccc2nc(-c3ccccc3)cn2c1)C(=O)O (stereo partly shown) [Example 2-622] | – | – | – | ≥ 1 | ≥ 1 | < 1
O=C(O)C1(NS(=O)(=O)c2ccc(-c3ccc(Cl)cc3)cc2)CC1c1ccc(Oc2ccccc2)cc1 (stereo not shown) [Example 1-16] | < 1 | ≥ 1 | < 0.1 | – | – | –
O=C(O)[C@]1(NS(=O)(=O)/C=C/c2ccc(Cl)cc2)C[C@@H]1c1ccccc1 [Example 2-151] | ≥ 10 | ≥ 10 | ≥ 1 | – | – | –
CC1C(c2ccccc2)C1(NS(=O)(=O)c1ccc(-c2cccc(CN3CCOCC3)c2)s1)C(=O)O (stereo not shown) [Example 2-540] | – | – | – | ≥ 1 | ≥ 1 | < 1
O=C(O)C1(NS(=O)(=O)c2ccc(-c3ccc(Cl)cc3)s2)CC1c1cccc(NS(=O)(=O)C(F)(F)F)c1 (stereo not shown) [Example 1-132] | < 0.1 | ≥ 1 | < 0.1 | – | – | –
O=C(O)[C@]1(NS(=O)(=O)c2ccc(-c3cc(-c4ccccc4)on3)s2)C[C@@H]1c1ccccc1 [Example 2-114] | ≥ 1 | < 1 | < 0.1 | – | – | –
O=C(O)C1(NS(=O)(=O)c2ccc(-c3ccc(Cl)cn3)s2)CC1c1cccc(Cn2cccn2)c1 (stereo not shown) [Example 2-56] | < 0.1 | ≥ 10 | < 0.1 | – | – | –
O=C(O)CCc1ccccc1C1CC1(NS(=O)(=O)c1ccc(-c2ccc(Cl)cc2)s1)C(=O)O (stereo not shown) [Example 2-179] | < 0.1 | ≥ 10 | < 1 | – | – | –
C[C@]1(c2ccccc2)C[C@@]1(NS(=O)(=O)c1ccc2c(c1)Cc1cc(Cl)ccc1-2)C(=O)O [Example 2-568] | – | – | – | < 0.1 | < 1 | < 0.1
CC1[C@H](c2ccccc2)[C@]1(NS(=O)(=O)c1ccc(-n2cc(Cl)cn2)s1)C(=O)O (stereo partly shown) [Example 2-444] | – | – | – | < 0.1 | < 1 | < 0.1
CC(C)S(=O)(=O)CC1(c2ccccc2)CC1(NS(=O)(=O)c1ccc(-c2ccc(Cl)cc2)s1)C(=O)O (stereo not shown) [Example 2-348] | – | – | – | < 1 | ≥ 10 | < 1
CC1(c2ccc(Cl)cc2)CC1(NS(=O)(=O)c1ccc(-c2cc(C(F)(F)F)on2)s1)C(=O)O (stereo not shown) [Example 2-608] | – | – | – | < 0.1 | < 1 | < 1
O=C(O)C1(NS(=O)(=O)c2ccc(-c3ccc(Cl)cc3)s2)CC1c1ccccc1CN1CCOCC1 (stereo not shown) [Example 2-91] | < 1 | ≥ 10 | < 1 | – | – | –
O=C1CCCN1c1cccc(C2CC2(NS(=O)(=O)c2ccc(-c3cc(C(F)(F)F)on3)s2)C(=O)O)c1 (stereo not shown) [Example 2-276] | – | – | – | < 1 | ≥ 1 | < 0.1
C[C@]1(c2ccccc2)C[C@@]1(NS(=O)(=O)c1ccc(-c2ccc(N)cc2)s1)C(=O)O [Example 2-583] | – | – | – | ≥ 1 | – | ≥ 1
Cn1nncc1-c1ccc(S(=O)(=O)N[C@@]2(C(=O)O)C[C@]2(C)c2ccccc2)s1 [Example 2-586] | – | – | – | ≥ 1 | – | ≥ 10
